ChEMBL document CHEMBL4602613, “Early identification of promiscuous attributes of aldose reductase inhibitors using a DMSO-perturbation assay” (Bioorg Med Chem Lett, 2020)

Columns and labels:
[1] = target: T1, Aldo-keto reductase family 1 member B1 (Homo sapiens, UniProt P15121); assay: Inhibition of human recombinant AKR1B1 assessed as D,L-glyceraldehyde reduction incubated in sodium phosphate buffer at pH 6.2 in presence of NADPH
[2] = target: T1, Aldo-keto reductase family 1 member B1; assay: Inhibition of human recombinant AKR1B1 assessed as D,L-glyceraldehyde reduction at 100 uM incubated in sodium phosphate buffer at pH 6.2 in presence of NADPH relative to control
[3] = target: T1, Aldo-keto reductase family 1 member B1; assay: Aggregation-based inhibition of human recombinant AKR1B1 assessed as D,L-glyceraldehyde reduction incubated in sodium phosphate buffer at pH 6.2 in presence of NADPH and 0.05% Triton X-100 by detergent-addition assay
[4] = target: T1, Aldo-keto reductase family 1 member B1; assay: Inhibition of human recombinant AKR1B1 assessed as D,L-glyceraldehyde reduction pretreated with 0.7M DMSO followed by compound addition by DMSO-perturbation assay
[5] = target: T1, Aldo-keto reductase family 1 member B1; assay: Inhibition of human recombinant AKR1B1 assessed as D,L-glyceraldehyde reduction pretreated with 0.3M DMSO followed by compound addition by DMSO-perturbation assay
[6] = target: T1, Aldo-keto reductase family 1 member B1; assay: Aggregation-based inhibition of human recombinant AKR1B1 assessed as D,L-glyceraldehyde reduction at 300 uM incubated in sodium phosphate buffer at pH 6.2 in presence of NADPH and 0.05% Triton X-100 by detergent-addition assay
[7] = target: T1, Aldo-keto reductase family 1 member B1; assay: Ratio of IC50 for human recombinant AKR1B1 in presence of 0.7M DMSO to IC50 for human recombinant AKR1B1 in presence of 0.3M DMSO by DMSO-perturbation assay
[8] = target: T2, Aldo-keto reductase family 1 member B10 (Homo sapiens, UniProt O60218); assay: Inhibition of AKR1B10 (unknown origin) pretreated with 0.42M DMSO followed by compound treatment by DMSO-perturbation assay
T2 sequence (O60218 whole entry): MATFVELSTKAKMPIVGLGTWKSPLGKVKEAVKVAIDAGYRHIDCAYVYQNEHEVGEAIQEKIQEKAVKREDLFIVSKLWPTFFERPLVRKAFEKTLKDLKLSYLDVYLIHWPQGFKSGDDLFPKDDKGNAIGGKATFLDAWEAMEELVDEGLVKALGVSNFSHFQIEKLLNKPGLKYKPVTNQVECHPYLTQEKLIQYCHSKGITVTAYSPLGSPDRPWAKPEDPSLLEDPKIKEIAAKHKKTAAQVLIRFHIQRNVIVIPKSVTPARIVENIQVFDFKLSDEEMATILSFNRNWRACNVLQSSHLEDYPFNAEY

[9] = target: T2, Aldo-keto reductase family 1 member B10; assay: Inhibition of AKR1B10 (unknown origin) pretreated with 0.25M DMSO followed by compound treatment by DMSO-perturbation assay

| SMILES | IC50 ([1]; read-out: IC50) | inhibition [2] | IC50 [3] | other results |
| --- | --- | --- | --- | --- |
| O=C1NC(=O)C2(CCCc3ccccc32)N1 (stereo not given) | 80.1 µM | 56% | 114 µM | – |
| O=C1NC(=O)C(c2ccccc2)(c2ccc(O)cc2)N1 (stereo not given) | 40.6 µM | 71% | 47.9 µM | IC50 [4]: 64.2 µM; IC50 [5]: 40.6 µM |
| CCCCCCCCC[C@H](O)CC(=O)CCc1ccc(O)c(OC)c1 | 126 µM | 45% | – | inhibition [6]: < 50% |
| COc1ccc2c(c1)OC(=O)NC2(C)C(N)=O (stereo not given) | – | 12% | – | – |
| COc1ccc(C(C)=O)c(O)c1 | – | 2% | – | – |
| Cn1cnc2c1c(=O)n(CCCCC1(C)NC(=O)NC1=O)c(=O)n2C (stereo not given) | 65.6 µM | 56% | 71.9 µM | IC50 [4]: 178 µM; Ratio IC50 [7]: 2.7; IC50 [5]: 65.6 µM |
| CCCCC[C@H](O)CC(=O)CCc1ccc(O)c(OC)c1 [GINGEROL] | – | 4% | – | IC50 [1]: Not Active |
| O=C1NC(=O)C(c2ccccc2)N1 (stereo not given) | – | 34% | – | – |
| CC(=O)CC[C@@H]1[C@H]2CC(=C(C)C)C(=O)C[C@@]12C | – | 3% | – | – |
| CC(/C=C1\SC(=S)N(CC(=O)O)C1=O)=C\c1ccccc1 | – | – | – | IC50 [8]: 0.0393 µM; IC50 [9]: 0.0352 µM |
| CCCC1NC(=O)NC1=O (stereo not given) | – | 19% | – | – |
| CC1(CCc2ccccc2)NC(=O)NC1=O (stereo not given) | 160 µM | 39% | 319 µM | – |
| CC(C)=C1C[C@@H]2[C@@H](CCC3(C)NC(=O)NC3=O)[C@]2(C)CC1=O (stereo not given in full) | 291 µM | 30% | 453 µM | – |
| COc1ccc(C2(C)NC(=O)NC2=O)c(O)c1 (stereo not given) | 295 µM | 31% | 433 µM | – |
